Columns and labels:
[1] = Systemic hemodynamics during infarct experiment; assay type: in vivo, rabbit
Procedure: (§1) Male New Zealand white rabbits weighing between 2.5 and 3.0 kg were anesthetized with intravenous sodium pentobarbital (30 mg/kg). Additional doses of pentobarbital were titrated as required to assure that pedal and palpebral reflexes were absent throughout the experiment. A tracheotomy was performed through a ventral midline incision, and the trachea was cannulated. The rabbits were ventilated with positive pressure using an air-oxygen mixture (FiO2=0.33). […] Body temperature was maintained with a heating blanket. Heparin-filled catheters were inserted into the right carotid artery and the left jugular vein for measurement of arterial blood pressure and fluid or drug administration, respectively. Maintenance fluids consisted of 0.9% saline (15 ml/kg/h) that were continued for the duration of the experiment.
A left thoracotomy was performed at the fourth intercostal space, and the heart was suspended in a pericardial cradle. A prominent branch of the left anterior descending coronary artery (LAD) was selected, and a silk ligature was placed around this artery approximately halfway between the base and apex for the production of coronary artery occlusion and reperfusion in myocardial infarct size experiments. Each rabbit was anticoagulated with 500 U of heparin immediately before LAD occlusion. Coronary artery occlusion was verified by the presence of epicardial cyanosis and regional dyskinesia in the ischemic zone, and reperfusion was confirmed by observing an epicardial hyperemic response. Hemodynamics were continuously recorded on a polygraph throughout experimentation. After the surgical preparation, 30 min of stabilization were allowed.
(§2) Baseline measurements of systemic hemodynamics, arterial blood gas tensions, and blood concentrations of anesthetic agent were performed 30 min after instrumentation was completed. Rabbits received 0.9% saline, drug lipid vehicle (10 ml/h), or intravenous volatile anesthetic (10 ml/h) for 30 min. Infusions were discontinued 30 min prior to coronary occlusion (memory period). Blood concentrations of anesthetic agents were performed at baseline, at the end of anesthetic infusion, and at the end of the memory period just before coronary occlusion). HVA concentrations in blood were determined by gas chromatographic (GC) analysis. All rabbits underwent a 30 min LAD occlusion followed by 3 h reperfusion.
(§3) Statistical analysis of data within and between groups was performed with analysis of variance (ANOVA) for repeated measures followed by Student-Newman-Keuls test. Changes between groups were considered statistically significant when the p value was less than 0.05. All data are expressed as mean±SEM.

[2] = Arterial blood gas analysis; assay type: in vivo, rabbit; settings: for pH: arterial blood
Procedure: as §1, §2, §3

[3] = End-tidal gas analysis; assay type: in vivo, rabbit; settings: for EtHalogenated: end-tidal
Procedure: as §2, §3

[4] = Literature MAC values in rabbits and 1 MAC-equivalent blood concentration; assay type: in vivo; settings: 37° C., rabbit; x=λn
Procedure: “Minimum alveolar concentration (MAC)”, as is known in the art, is the alveolar concentration of an anesthetic, administered by inhalation at a pressure of 1 atmosphere, that prevents movement in 50% of patients in response to a painful stimuli. The MAC is age-dependent; it may be affected by a patient's medical condition; and it may also be affected by other pharmaceutical agents that are administered to the patient. In the context of intravenous administration of HVAs, the term “MAC” or “MAC-equivalent” is intended to mean an intravenous dose which produces the same blood plasma concentration of an anesthetic agent as that attained by inhalational administration of a gaseous concentration of anesthetic which prevents such movement in 50% of patients.
Blood concentrations as measured by GC were converted to their MAC-equivalent values by calculations described below. Initially “n”, or the number of moles of HVA in 1 L of alveolar gas during exposure to 1.0 MAC of the HVA was calculated.
The number of moles of the HVA in 1 L at 37° C. at 1 MAC in rabbits was then used to determine the concentration of the HVA present in blood by using known blood/gas partition values (also known as λ). […] The value for “x” (or the equivalent blood concentration of the HVA at 1 MAC at 37° C. in rabbit) is then determined by the equation: x=λn

[5] = literature values determined in rabbits; cited from earlier work
[6] = i.v. emulsion 10 ml/h for 30 min, Baseline

FC(F)OC(Cl)C(F)(F)F (stereo not drawn) [ISO, isoflurane]
MAP ([1]; Baseline): 64 ± 5 mmHg
RPP ([1]; Baseline): 17.7 ± 2 bpm × mmHg × 10^3
HR ([1]; Infusion): 227 ± 14 bpm
MAP ([1]; Infusion): 57 ± 6 mmHg
RPP ([1]; Infusion): 16.2 ± 2.2 bpm × mmHg × 10^3
MAP ([1]; Infusion, listed as isoflurane): decreased
HR ([1]; Ischemia 30 min): 220 ± 11 bpm
MAP ([1]; Ischemia 30 min): 54 ± 5 mmHg
RPP ([1]; Ischemia 30 min): 14.3 ± 1.6 bpm × mmHg × 10^3
HR ([1]; Memory): 229 ± 10 bpm
MAP ([1]; Memory): 62 ± 6 mmHg
RPP ([1]; Memory): 16.7 ± 2 bpm × mmHg × 10^3
HR ([1]; Reperfusion 1 h): 212 ± 4 bpm
MAP ([1]; Reperfusion 1 h): 52 ± 3 mmHg
RPP ([1]; Reperfusion 1 h): 13.3 ± 0.8 bpm × mmHg × 10^3
RPP ([1]; Reperfusion 1 h, listed as isoflurane): decreased
HR ([1]; Reperfusion 2 h): 201 ± 6 bpm
MAP ([1]; Reperfusion 2 h): 54 ± 3 mmHg
RPP ([1]; Reperfusion 2 h): 13.2 ± 1 bpm × mmHg × 10^3
HR ([1]; Reperfusion 3 h): 195 ± 7 bpm
MAP ([1]; Reperfusion 3 h): 58 ± 3 mmHg
RPP ([1]; Reperfusion 3 h): 13.5 ± 1 bpm × mmHg × 10^3
HR [1, 6]: 240 ± 9 bpm
PaCO2 ([2]; Baseline): 34 ± 2 mmHg
PaO2 ([2]; Baseline): 136 ± 17 mmHg
PaCO2 ([2]; Infusion): 34 ± 2 mmHg
PaO2 ([2]; Infusion): 124 ± 11 mmHg
PaCO2 ([2]; Ischemia 30 min): 33 ± 2 mmHg
PaO2 ([2]; Ischemia 30 min): 166 ± 24 mmHg
PaCO2 ([2]; Memory): 36 ± 2 mmHg
PaO2 ([2]; Memory): 146 ± 15 mmHg
PaCO2 ([2]; Reperfusion 1 h): 31 ± 2 mmHg
PaO2 ([2]; Reperfusion 1 h): 167 ± 12 mmHg
PaCO2 ([2]; Reperfusion 2 h): 32 ± 2 mmHg
PaO2 ([2]; Reperfusion 2 h): 169 ± 12 mmHg
PaCO2 ([2]; Reperfusion 3 h): 33 ± 2 mmHg
PaO2 ([2]; Reperfusion 3 h): 160 ± 13 mmHg
pH ([2]; Baseline): 7.43 ± 0.02
pH ([2]; Infusion): 7.40 ± 0.03
pH ([2]; Ischemia 30 min): 7.36 ± 0.02
pH ([2]; Memory): 7.36 ± 0.02
pH ([2]; Reperfusion 1 h): 7.39 ± 0.02
pH ([2]; Reperfusion 2 h): 7.39 ± 0.02
pH ([2]; Reperfusion 3 h): 7.39 ± 0.01
EtCO2 ([3]; Baseline): 34 ± 1 mmHg
EtCO2 ([3]; Infusion): 34 ± 1 mmHg
EtCO2 ([3]; Ischemia 30 min): 30 ± 2 mmHg
EtCO2 ([3]; Memory): 33 ± 2 mmHg
EtCO2 ([3]; Reperfusion 1 h): 27 ± 2 mmHg
EtCO2 ([3]; Reperfusion 2 h): 28 ± 2 mmHg
EtCO2 ([3]; Reperfusion 3 h): 30 ± 2 mmHg
EtHalogenated ([3]; Baseline): 0%
EtHalogenated ([3]; Infusion): 0.31 ± 0.02%
EtHalogenated ([3]; Ischemia 30 min): 0.00 ± 0.00%
EtHalogenated ([3]; Memory): 0.02 ± 0.01%
EtHalogenated ([3]; Reperfusion 1 h): 0.00 ± 0.00%
EtHalogenated ([3]; Reperfusion 2 h): 0.00 ± 0.00%
EtHalogenated ([3]; Reperfusion 3 h): 0.00 ± 0.00%
1 MAC-Equivalent Blood Concentration at 1 MAC ("x") [4]: 1.06 mM
Average MAC [5]: 2.05 % v/v

FCOC(C(F)(F)F)C(F)(F)F [SEVO, sevoflurane]
MAP ([1]; Baseline): increased
RPP ([1]; Baseline): 22.9 ± 1.3 bpm × mmHg × 10^3
MAP ([1]; Baseline, listed as SEV): 92 ± 4 mmHg
HR ([1]; Infusion): 235 ± 9 bpm
MAP ([1]; Infusion): increased
RPP ([1]; Infusion): 23.7 ± 1.7 bpm × mmHg × 10^3
MAP ([1]; Infusion, listed as SEV): 91 ± 4 mmHg
HR ([1]; Ischemia 30 min): 214 ± 8 bpm
MAP ([1]; Ischemia 30 min): 64 ± 5 mmHg
RPP ([1]; Ischemia 30 min): 15.7 ± 1.6 bpm × mmHg × 10^3
HR ([1]; Memory): 227 ± 11 bpm
MAP ([1]; Memory): 87 ± 4 mmHg
RPP ([1]; Memory): 22.1 ± 1.8 bpm × mmHg × 10^3
HR ([1]; Reperfusion 1 h): 206 ± 9 bpm
MAP ([1]; Reperfusion 1 h): 65 ± 3 mmHg
RPP ([1]; Reperfusion 1 h): 15.2 ± 1.3 bpm × mmHg × 10^3
HR ([1]; Reperfusion 2 h): 193 ± 10 bpm
MAP ([1]; Reperfusion 2 h): 65 ± 3 mmHg
RPP ([1]; Reperfusion 2 h): 14 ± 1.2 bpm × mmHg × 10^3
HR ([1]; Reperfusion 3 h): 188 ± 9 bpm
MAP ([1]; Reperfusion 3 h): 65 ± 2 mmHg
RPP ([1]; Reperfusion 3 h): 13.8 ± 0.8 bpm × mmHg × 10^3
HR [1, 6]: 227 ± 7 bpm
PaCO2 ([2]; Baseline): 37 ± 1 mmHg
PaO2 ([2]; Baseline): 125 ± 8^ mmHg
PaCO2 ([2]; Infusion): 38 ± 1 mmHg
PaO2 ([2]; Infusion): 118 ± 6 mmHg
PaCO2 ([2]; Ischemia 30 min): 40 ± 1 mmHg
PaO2 ([2]; Ischemia 30 min): 106 ± 12 mmHg
PaCO2 ([2]; Memory): 41 ± 1 mmHg
PaO2 ([2]; Memory): 107 ± 11 mmHg
PaCO2 ([2]; Reperfusion 1 h): 38 ± 1 mmHg
PaO2 ([2]; Reperfusion 1 h): 120 ± 7 mmHg
PaCO2 ([2]; Reperfusion 2 h): 38 ± 1 mmHg
PaO2 ([2]; Reperfusion 2 h): 127 ± 6^ mmHg
PaCO2 ([2]; Reperfusion 3 h): 39 ± 1 mmHg
PaO2 ([2]; Reperfusion 3 h): 121 ± 8 mmHg
pH ([2]; Baseline): 7.44 ± 0.01
pH ([2]; Infusion): 7.42 ± 0.01
pH ([2]; Ischemia 30 min): 7.38 ± 0.01
pH ([2]; Memory): 7.39 ± 0.01
pH ([2]; Reperfusion 1 h): 7.39 ± 0.01
pH ([2]; Reperfusion 2 h): 7.40 ± 0.01
pH ([2]; Reperfusion 3 h): 7.39 ± 0.01
EtCO2 ([3]; Baseline): 35 ± 1 mmHg
EtCO2 ([3]; Infusion): 36 ± 1 mmHg
EtCO2 ([3]; Ischemia 30 min): 35 ± 1 mmHg
EtCO2 ([3]; Memory): 36 ± 1 mmHg
EtCO2 ([3]; Reperfusion 1 h): 34 ± 1 mmHg
EtCO2 ([3]; Reperfusion 2 h): 33 ± 1 mmHg
EtCO2 ([3]; Reperfusion 3 h): 34 ± 1 mmHg
EtHalogenated ([3]; Baseline): 0%
EtHalogenated ([3]; Infusion): 0.34 ± 0.02%
EtHalogenated ([3]; Ischemia 30 min): 0.04 ± 0.01%
EtHalogenated ([3]; Memory): 0.07 ± 0.01%
EtHalogenated ([3]; Reperfusion 1 h): 0.03 ± 0.01%
EtHalogenated ([3]; Reperfusion 2 h): 0.04 ± 0.01%
EtHalogenated ([3]; Reperfusion 3 h): 0.05 ± 0.01%
1 MAC-Equivalent Blood Concentration at 1 MAC ("x") [4]: 0.94 mM
Average MAC [5]: 3.7 % v/v
